{"source": "patent US8575089B2", "about": "“Composition for preventing or treating inflammation” (University-Industry Cooperation Group of Kyung Hee, priority 2009, dated 2013)", "key": {"[1]": {"tested_on": "CD11b+ macrophage isolated from peripheral blood", "assay": "IL-6 and IL-10 expression (ELISA) in CD11b+ macrophages treated with SP", "format": "cell-based, C57b1/6 mice", "conditions": "CD11b+ macrophage in macrophage activation media; SP as Example 1-(1); 4.5, 10, 24 hours; FIG. 3", "description": "[The procedure below names another cell line; the source says it served here with some conditions changed.] Peripheral blood was collected from C57b1/6 mice (8 weeks, sex; male, n=5, Average Weight; 20 g), diluted doubly with PBS, carefully placed on Ficoll in a tube, and then centrifuged at 2200 rpm for 20 minutes. By centrifuging, from the bottom, an erythrocyte layer, a ficoll layer, a mononuclear cell layer, and a plasma layer were obtained in order. The mononuclear cell layer and plasma layer were isolated, excluding the erythrocyte layer and ficoll layer, and then washed one time with PBS. Then, the number of cells was counted; the cells with a concentration of 1×10^5/0.2 ml were seeded onto T-cell activation media (lymphocyte activation media; RPMI, 10% FBS, 100 μM 2-mercaptoetanol, 20 μg/ml ConA); then the cells were cultured at an incubator of 37° C.; and then culture supernatant was taken at 4.5 hours, 10 hours, and 24 hours. For SP-treated group, 10 nmole/kg of SP dissolved in a physiological saline was treated to T-cell activation media. […] After 30 minutes, 100 μl of stop codon was treated to stop the reaction; the optical density was measured at 450 nm; the amounts of cytokines were converted based on a protein conversion formula by a standard sample; and then the results were shown in FIG. 1. […]"}, "IL-6 and TNFα": {"tested_on": "IL-6 and TNFα", "assay": "Radiation-irradiating model: inflammatory cytokines IL-6 and TNFα in serum (ELISA)", "format": "in vivo, C57b1/6 mice", "conditions": "mice, 8 Gy, 5 nmole/kg SP i.v.", "description": "5 nmole/kg of SP dissolved in a physiological saline was injected to a tail vein of C57b1/6 mice (8 weeks, sex; male, n=4, Average weight; 20 g) one day before irradiation and immediately after irradiation. The irradiation was performed at 8 Gy radiation in a Gamma lay radiation irradiator (^137Cs, Atomic Energy of Canada, Mississauga, Canada). The mice were sacrificed at 4.5 hours and one day after irradiation, and then the blood was collected. The part of the blood was used for analyzing CBC (Complete Blood Count) and the remaining blood was used to isolate serum and then analyze cytokines\nIL-6 and TNFα that are well known as inflammatory cytokines were analyzed. Specific procedures were as follows: Serum samples stored in […] and reagents, controls, and standard proteins stored in a cold storage were taken out at a room temperature. 50 μl of diluted solution was put into each well; 50 μl of standard, control, and samples were added; well mixed by lightly tapping the plate; and then placed for 2 hours at a room temperature. […] After 30 minutes, 100 μl of stop codon was treated to stop the reaction; the optical density was measured at 450 nm; the amounts of cytokines were converted based on a protein conversion formula by a standard sample; and then the result was shown in FIG. 8. […]"}}, "note": "Where no end group is shown, it is not given here.", "data": [{"substance": "Substance-P (RPKPQQFFGLM; not fully specified; ends and bridges not checked; UniProt P20366 58-68, looked up)", "values": [{"measurement": "expression level of IL-6 in culture supernatant", "setting": "[1]", "value": "no difference"}, {"measurement": "expression of IL-10 in culture supernatant", "setting": "[1]", "value": "increased"}, {"measurement": "inhibition of increase of IL-6 in serum", "setting": "IL-6 and TNFα; 4.5 hours after irradiation, vs group without SP, FIG. 8A", "value": "about 30%"}, {"measurement": "TNF α in serum", "setting": "IL-6 and TNFα; one day after irradiation, FIG. 8", "value": "inhibited"}]}]}
